Experimental data from PMC8330757, “Design and characterisation of piperazine-benzofuran integrated dinitrobenzenesulfonamide as Mycobacterium tuberculosis H37Rv strain inhibitors” (Journal of Enzyme Inhibition and Medicinal Chemistry, 2021).
Converted amounts (≈) assume the structure as drawn. Like-named read-outs stand apart in the source and are kept apart here.

Tests used:
[1] = DPPH radical scavenging assay; details: absorbance at 517 nm after 30 min
Protocol: In TB, oxidative stress may result in tissue inflammation due to anti-TB drugs. The synthesised compounds have shown promising anti-TB activity and have the potential to develop as lead compounds. Therefore, it is necessary to evaluate the synthesised compounds for their antioxidant activity. Antioxidant activities of the synthesised compounds were measured using 2,2-diphenyl-1-picrylhydrazyl (DPPH) radical scavenging assay. DPPH radical scavenging activity is the most commonly used method for screening the antioxidant activities of the various natural as well as synthetic antioxidants. A lower IC50 value indicates greater antioxidant activity. […]
(§1) completion of starting material and formation of polar spot. The reaction mixture was concentrated to dry to give 7a-7d, used directly in next step.
(§2) 1.2. In-vitro Mtb MABA assay
(§3) Briefly, the inoculum was prepared from fresh LJ medium re -suspended in 7H9-S medium (7H9 broth, 0.1% casitone, 0.5% glycerol, supplemented oleic acid, albumin, dextrose, and catalase [OADC]), adjuste d to an OD590 1.0, and diluted 1:20; 100 µl was used as inoculum. Each drug stock solution was thawed and diluted in 7H9 -S at four-fold the final highest concentration tested. Serial two-fold dilutions of each drug were prepared directly in a sterile 96 -well microtiter plate using 100 µl 7H9 -S. A growth control containing no antibiotic and a sterile control were also prepared on each plate. Sterile water was added to all perimeter wells to avoid evaporation during the incubation. The plate was covered, seal ed in plastic bags and incubated at 37 °C in normal atmosphere. After 7 days incubation, 30 µl of Alamar blue solution was added to each well, and the plate was re -incubated overnight. A change in colour from blue (oxidised state) to pink (reduced) indicat ed the growth of bacteria, and the MIC was defined as the lowest concentration of drug that prevented this change in colour. […]
(§4) the concentration of […]. After 72 h of exposure, viability was assessed on the basis of cellular conversion of MTT into a formazan product using the Promega Cell Titer 96 non - radioactive cell proliferation assay.
(§5) 1.4. DPPH radical scavenging activity
(§6) The hydrogen atom or electron donation ability of some compounds were measured from the bleaching of the purple colored methanol solution of […] (DPPH). The spectrophotometric assay uses the stable radical DPPH as a reagent. 1 mL of various concentrations of the test compounds (5, 10, 25, 50 and 100 μg/mL) in methanol was added to 4 mL of 0.004% (w/v) methanol solution of DPPH. The reaction mixture was incubated at 37 °C.
(§7) The scavenging activity on DPPH was determined by measuring the absorbance at 517 nm after 30 min. All tests were performed in triplicate and the mean values were entered. The percent of inhibition (I %) of free radical production from DPPH was calculated by the following equation % of scavenging = [(A control – A sample)/ […]]. Where, A control is the […]

Mtb H37Rv (ATCC27294) = experiment: In vitro anti-TB activity (MIC) against Mtb H37Rv; format: cell-based, Mycobacterium tuberculosis; details: for MIC: Mycobacterium tuberculosis, read-out: Anti-TB (MIC)
[2] = In vitro cytotoxicity, MTT assay; format: cell-based, human; details: human, A549 cells, read-out: Human cell lines A549 IC50 approximation
Protocol: (§8) The safety profile of the active hybrids was also accessed by testing in vitro cytotoxicity against human cell-line A549 cells at 50 μg/mL concentration by (4,5-dimethylthiazol-2-yl)-2,5-diphenyltetrazolium bromide (MTT) assay. […]
as §1, §2, §3, §4, §5, §6, §7

[3] = test system: human cell-line A549 cells; experiment: In vitro cytotoxicity, MTT assay; format: cell-based; details: 50 μg/mL, 72 h exposure
Protocol: as §8, §1, §2, §3, §4, §5, §6, §7

[4] = Mtb H37Rv, most active compounds tested in triplicates

SMILES	DPPH IC50 [1]	Anti-TB (MIC) (Mtb H37Rv (ATCC27294); [4])	MIC (Mtb H37Rv (ATCC27294))	IC50 at 72 h [2]	% Cell inhibition at 50 μg/mL [3]	MIC (Mtb H37Rv (ATCC27294); [4])
O=C1O[C@H]([C@@H](O)CO)C(O)=C1O [Ascorbic acid, reference compound]	12.7 µg/mL					
CCOC(=O)c1cc2cc(N3CCN(S(=O)(=O)c4ccc([N+](=O)[O-])cc4[N+](=O)[O-])CC3)ccc2o1 [Compound 4a, ethyl 5-(4-(2,4-dintrobenzenesulfonyl)piperazin-1-yl)benzofuran-2-carboxylate]	15.25 µg/mL	0.78 µg/mL	0.78 ± 0.36 µg/mL (≈ 1.55 µM)	> 50 µg/mL	20.80%	
CCOC(=O)c1cc2cc(N3CCN(C(=O)CNS(=O)(=O)c4ccc([N+](=O)[O-])cc4[N+](=O)[O-])CC3)ccc2o1 [Compound 4b, ethyl 5-(4-(2-(2,4-dinitrophenylsulfonamido)acetyl)piperazin-1-yl)benzofuran-2-carboxylate]	50.33 µg/mL		3.12 ± 1.47 µg/mL (≈ 5.56 µM)	> 50 µg/mL	37.41%	
CCOC(=O)c1cc2cc(N3CCN(C(=O)CCCNS(=O)(=O)c4ccc([N+](=O)[O-])cc4[N+](=O)[O-])CC3)ccc2o1 [Compound 4d, ethyl 5-(4-(4-(2,4-dinitrophenylsulfonamido)butanoyl)piperazin-1-yl) benzofuran-2-carboxylate]	33.50 µg/mL		1.56 ± 0.36 µg/mL (≈ 2.65 µM)	> 50 µg/mL	35.95%	
CCOC(=O)c1cc2cc(N3CCN(C(=O)C4CCN(S(=O)(=O)c5ccc([N+](=O)[O-])cc5[N+](=O)[O-])CC4)CC3)ccc2o1 [Compound 4e, ethyl 5-(4-(1-((2,4-dinitrophenyl)sulphonyl)piperidine-4-carbonyl)piperazin-1-yl)benzofuran-2-carboxylate]	45.21 µg/mL		1.56 ± 0.97 µg/mL (≈ 2.53 µM)	> 50 µg/mL	18.95%	
CCOC(=O)c1cc2cc(N3CCN(C(=O)C4CCCN(S(=O)(=O)c5ccc([N+](=O)[O-])cc5[N+](=O)[O-])C4)CC3)ccc2o1 (stereo not drawn) [Compound 4f, ethyl 5-(4-(1-((2,4-dinitrophenyl)sulphonyl)piperidine-3-carbonyl)piperazin-1-yl)benzofuran-2-carboxylate]	39.01 µg/mL		1.56 ± 0.73 µg/mL (≈ 2.53 µM)	> 50 µg/mL	22.75%	
CCOC(=O)c1cc2cc(N3CCN(C(=O)[C@@H]4CCCN4S(=O)(=O)c4ccc([N+](=O)[O-])cc4[N+](=O)[O-])CC3)ccc2o1 [Compound 4g, (S)-ethyl 5-(4-(1-((2,4-dinitrophenyl)sulphonyl)pyrrolidine-2-carbonyl)piperazin-1-yl)benzofuran-2-carboxylate]	55.25 µg/mL		6.25 µg/mL (≈ 10.4 µM)	> 50 µg/mL	29.64%	
CCOC(=O)c1cc2cc(N3CCN(C(=O)[C@H]4CCCN4S(=O)(=O)c4ccc([N+](=O)[O-])cc4[N+](=O)[O-])CC3)ccc2o1 [Compound 4h, (R)-ethyl 5-(4-(1-((2,4-dinitrophenyl)sulphonyl)pyrrolidine-2-carbonyl)piperazin-1-yl)benzofuran-2-carboxylate]	49.75 µg/mL		> 25 µg/mL	> 50 µg/mL	33.08%	
CCOC(=O)c1cc2cc(N3CCN(C(=O)C4CCN(S(=O)(=O)c5ccc([N+](=O)[O-])cc5[N+](=O)[O-])C4)CC3)ccc2o1 (stereo not drawn) [Compound 4i, ethyl 5-(4-(1-((2,4-dinitrophenyl)sulphonyl)pyrrolidine-3-carbonyl)piperazin-1-yl)benzofuran-2-carboxylate]	52.44 µg/mL		6.25 µg/mL (≈ 10.4 µM)	> 50 µg/mL	19.38%	
CCOC(=O)c1cc2cc(N3CCN(C(=O)C(C)(C)NS(=O)(=O)c4ccc([N+](=O)[O-])cc4[N+](=O)[O-])CC3)ccc2o1 [Compound 4j, ethyl 5-(4-(2-(2,4-dinitrophenylsulfonamido)-2-methylpropanoyl)piperazin-1-yl)benzofuran-2-carboxylate]	20.43 µg/mL	0.78 µg/mL	0.78 ± 0.48 µg/mL (≈ 1.32 µM)	> 50 µg/mL	39.28%	
CCOC(=O)c1cc2cc(N3CCN(C(=O)C(NS(=O)(=O)c4ccc([N+](=O)[O-])cc4[N+](=O)[O-])c4ccccc4)CC3)ccc2o1 (stereo not drawn) [Compound 4k, ethyl 5-(4-(2-(2,4-dinitrophenylsulfonamido)-2-phenylacetyl)piperazin-1-yl) benzofuran-2-carboxylate]	45.87 µg/mL		> 25 µg/mL	> 50 µg/mL	22.55%	
NC(=O)c1cc2cc(N3CCN(S(=O)(=O)c4ccc([N+](=O)[O-])cc4[N+](=O)[O-])CC3)ccc2o1 [Compound 4m, 5-(4-((2,4-dinitrophenyl)sulphonyl)piperazin-1-yl)benzofuran-2-carboxamide]	45.44 µg/mL		25 µg/mL (≈ 52.6 µM)	> 50 µg/mL	23.65%	
O=C(Nc1ccccc1)c1cc2cc(N3CCN(S(=O)(=O)c4ccc([N+](=O)[O-])cc4[N+](=O)[O-])CC3)ccc2o1 [Compound 4n, 5-(4-((2,4-dinitrophenyl)sulphonyl)piperazin-1-yl)-N-phenylbenzofuran-2-carboxamide]	40.64 µg/mL		3.12 ± 1.1 µg/mL (≈ 5.66 µM)	> 50 µg/mL	27.98%	
O=C(c1cc2cc(N3CCN(S(=O)(=O)c4ccc([N+](=O)[O-])cc4[N+](=O)[O-])CC3)ccc2o1)N1CCCCC1 [Compound 4o, (5-(4-((2,4-dinitrophenyl)sulphonyl)piperazin-1-yl)benzofuran-2-yl) (piperidin-1-yl)methanone]	19.27 µg/mL	1.56 µg/mL	1.56 ± 0.36 µg/mL (≈ 2.87 µM)	> 50 µg/mL	31.58%	
CN1CCN(C(=O)c2cc3cc(N4CCN(S(=O)(=O)c5ccc([N+](=O)[O-])cc5[N+](=O)[O-])CC4)ccc3o2)CC1 [Compound 4p, (5-(4-((2,4-dinitrophenyl)sulphonyl)piperazin-1-yl)benzofuran-2-yl)(4-methylpiperazin-1-yl) methanone]	48.66 µg/mL		6.25 µg/mL (≈ 11.2 µM)	> 50 µg/mL	30.18%	
CC[C@@H](CO)NCCN[C@@H](CC)CO [Ethambutol, reference compound]		1.56 µg/mL				1.56 ± 0.76 µg/mL (≈ 7.64 µM)
NNC(=O)c1ccncc1 [Isoniazid, reference compound]		0.05 µg/mL				0.05 ± 0.02 µg/mL (≈ 0.365 µM)
CO[C@H]1/C=C/O[C@@]2(C)Oc3c(C)c(O)c4c(O)c(c(/C=N/N5CCN(C)CC5)c(O)c4c3C2=O)NC(=O)/C(C)=C\C=C\[C@H](C)[C@H](O)[C@@H](C)[C@@H](O)[C@@H](C)[C@H](OC(C)=O)[C@@H]1C [Rifampicin, reference compound]		0.1 µg/mL				0.1 ± 0.04 µg/mL (≈ 0.122 µM)
